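Method: 48-hour compound exposure of cells in 96-well plates, five concentrations, linear interpolation of endpoints. At the TGI there is no net growth.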
Key:
Assay in all cases: inhibition of tumour cell growth, NCI panel, 48 h
786-0 renal = tested on: 786-0 renal
A498 renal = tested on: A498 renal
A549 NSCLC = tested on: A549 NSCLC
ACHN renal = tested on: ACHN renal
BT-549 breast = tested on: BT-549 breast
CAKI-1 renal = tested on: CAKI-1 renal
CCRF-CEM leukemia = tested on: CCRF-CEM leukemia
COLO 205 colon = tested on: COLO 205 colon
DU-145 prostate = tested on: DU-145 prostate
EKVX NSCLC = tested on: EKVX NSCLC
HCC-2998 colon = tested on: HCC-2998 colon
HCT-116 colon = tested on: HCT-116 colon
HCT-15 colon = tested on: HCT-15 colon
HL-60(TB) leukemia = tested on: HL-60(TB) leukemia
HT29 colon = tested on: HT29 colon
IGROV1 ovarian = tested on: IGROV1 ovarian
K-562 leukemia = tested on: K-562 leukemia
KM12 colon = tested on: KM12 colon
LOX IMVI melanoma = tested on: LOX IMVI melanoma
M14 melanoma = tested on: M14 melanoma
MALME-3M melanoma = tested on: MALME-3M melanoma
MCF7 breast = tested on: MCF7 breast
MDA-MB-231 breast = tested on: MDA-MB-231 breast
MDA-MB-435 = tested on: MDA-MB-435
MDA-N = tested on: MDA-N
MOLT-4 leukemia = tested on: MOLT-4 leukemia
NCI-H226 lung = tested on: NCI-H226 lung
NCI-H23 lung = tested on: NCI-H23 lung
NCI-H460 lung = tested on: NCI-H460 lung
NCI-H522 lung = tested on: NCI-H522 lung
NCI/ADR-RES ovarian = tested on: NCI/ADR-RES ovarian
OVCAR-3 ovarian = tested on: OVCAR-3 ovarian
OVCAR-4 ovarian = tested on: OVCAR-4 ovarian
OVCAR-5 ovarian = tested on: OVCAR-5 ovarian
OVCAR-8 ovarian = tested on: OVCAR-8 ovarian
PC-3 prostate = tested on: PC-3 prostate
RPMI-8226 leukemia = tested on: RPMI-8226 leukemia
RXF 393 renal = tested on: RXF 393 renal
SF-268 CNS = tested on: SF-268 CNS
SF-295 CNS = tested on: SF-295 CNS
SF-539 CNS = tested on: SF-539 CNS
SK-MEL-2 melanoma = tested on: SK-MEL-2 melanoma
SK-MEL-28 melanoma = tested on: SK-MEL-28 melanoma
SK-MEL-5 melanoma = tested on: SK-MEL-5 melanoma
SK-OV-3 ovarian = tested on: SK-OV-3 ovarian
SN12C renal = tested on: SN12C renal
SNB-19 CNS = tested on: SNB-19 CNS
SR leukemia = tested on: SR leukemia
SW-620 colon = tested on: SW-620 colon
T-47D breast = tested on: T-47D breast
TK-10 renal = tested on: TK-10 renal
U251 CNS = tested on: U251 CNS
UACC-257 melanoma = tested on: UACC-257 melanoma
UACC-62 melanoma = tested on: UACC-62 melanoma
UO-31 renal = tested on: UO-31 renal
HOP-62 NSCLC = tested on: HOP-62 NSCLC
HOP-92 NSCLC = tested on: HOP-92 NSCLC
SNB-75 CNS = tested on: SNB-75 CNS

COc1ccc(-c2nc3cc(F)ccc3s2)cc1O
TGI (786-0 renal): 55.1 µM | TGI (A498 renal): 66.3 µM | TGI (A549 NSCLC): > 100 µM | TGI (ACHN renal): > 100 µM | TGI (BT-549 breast): 54.1 µM | TGI (CAKI-1 renal): 64 µM | TGI (CCRF-CEM leukemia): > 100 µM | TGI (COLO 205 colon): 94.4 µM | TGI (DU-145 prostate): > 100 µM | TGI (EKVX NSCLC): 60.8 µM | TGI (HCC-2998 colon): 12.7 µM | TGI (HCT-116 colon): > 100 µM | TGI (HCT-15 colon): > 100 µM | TGI (HL-60(TB) leukemia): 66.1 µM | TGI (HT29 colon): > 100 µM | TGI (IGROV1 ovarian): 81.3 µM | TGI (K-562 leukemia): > 100 µM | TGI (KM12 colon): > 100 µM | TGI (LOX IMVI melanoma): 79.3 µM | TGI (M14 melanoma): > 100 µM | TGI (MALME-3M melanoma): > 100 µM | TGI (MCF7 breast): > 100 µM | TGI (MDA-MB-231 breast): > 100 µM | TGI (MDA-MB-435): > 100 µM | TGI (MDA-N): > 100 µM | TGI (MOLT-4 leukemia): > 100 µM | TGI (NCI-H226 lung): > 100 µM | TGI (NCI-H23 lung): > 100 µM | TGI (NCI-H460 lung): > 100 µM | TGI (NCI-H522 lung): 42.1 µM | TGI (NCI/ADR-RES ovarian): > 100 µM | TGI (OVCAR-3 ovarian): > 100 µM | TGI (OVCAR-4 ovarian): > 100 µM | TGI (OVCAR-5 ovarian): > 100 µM | TGI (OVCAR-8 ovarian): > 100 µM | TGI (PC-3 prostate): > 100 µM | TGI (RPMI-8226 leukemia): 77.1 µM | TGI (RXF 393 renal): > 100 µM | TGI (SF-268 CNS): > 100 µM | TGI (SF-295 CNS): 49 µM | TGI (SF-539 CNS): > 100 µM | TGI (SK-MEL-2 melanoma): 78 µM | TGI (SK-MEL-28 melanoma): > 100 µM | TGI (SK-MEL-5 melanoma): 59 µM | TGI (SK-OV-3 ovarian): > 100 µM | TGI (SN12C renal): > 100 µM | TGI (SNB-19 CNS): > 100 µM | TGI (SR leukemia): 47.7 µM | TGI (SW-620 colon): > 100 µM | TGI (T-47D breast): 46.9 µM | TGI (TK-10 renal): 70 µM | TGI (U251 CNS): > 100 µM | TGI (UACC-257 melanoma): 61.8 µM | TGI (UACC-62 melanoma): > 100 µM | TGI (UO-31 renal): > 100 µM

NCc1ccc(O)c(O)c1
TGI (786-0 renal): > 100 µM | TGI (A498 renal): > 100 µM | TGI (A549 NSCLC): > 100 µM | TGI (ACHN renal): > 100 µM | TGI (BT-549 breast): > 100 µM | TGI (CAKI-1 renal): > 100 µM | TGI (CCRF-CEM leukemia): > 100 µM | TGI (COLO 205 colon): > 100 µM | TGI (DU-145 prostate): > 100 µM | TGI (EKVX NSCLC): > 100 µM | TGI (HCC-2998 colon): > 100 µM | TGI (HCT-116 colon): > 100 µM | TGI (HCT-15 colon): > 100 µM | TGI (HL-60(TB) leukemia): 41 µM | TGI (HOP-62 NSCLC): > 100 µM | TGI (HOP-92 NSCLC): > 100 µM | TGI (HT29 colon): > 100 µM | TGI (IGROV1 ovarian): > 100 µM | TGI (K-562 leukemia): > 100 µM | TGI (KM12 colon): > 100 µM | TGI (LOX IMVI melanoma): > 100 µM | TGI (M14 melanoma): > 100 µM | TGI (MCF7 breast): > 100 µM | TGI (MDA-MB-231 breast): > 100 µM | TGI (MDA-MB-435): > 100 µM | TGI (MDA-N): > 100 µM | TGI (MOLT-4 leukemia): > 100 µM | TGI (NCI-H226 lung): > 100 µM | TGI (NCI-H23 lung): > 100 µM | TGI (NCI-H460 lung): > 100 µM | TGI (NCI/ADR-RES ovarian): > 100 µM | TGI (OVCAR-3 ovarian): > 100 µM | TGI (OVCAR-4 ovarian): > 100 µM | TGI (OVCAR-5 ovarian): > 100 µM | TGI (OVCAR-8 ovarian): > 100 µM | TGI (PC-3 prostate): > 100 µM | TGI (RPMI-8226 leukemia): > 100 µM | TGI (RXF 393 renal): > 100 µM | TGI (SF-295 CNS): > 100 µM | TGI (SF-539 CNS): > 100 µM | TGI (SK-MEL-2 melanoma): > 100 µM | TGI (SK-MEL-28 melanoma): > 100 µM | TGI (SK-MEL-5 melanoma): > 100 µM | TGI (SK-OV-3 ovarian): > 100 µM | TGI (SN12C renal): > 100 µM | TGI (SNB-19 CNS): > 100 µM | TGI (SNB-75 CNS): > 100 µM | TGI (SR leukemia): > 100 µM | TGI (SW-620 colon): > 100 µM | TGI (T-47D breast): > 100 µM | TGI (U251 CNS): > 100 µM | TGI (UACC-257 melanoma): > 100 µM | TGI (UACC-62 melanoma): > 100 µM | TGI (UO-31 renal): > 100 µM
